Source: US20250236627A1, “CERTAIN OCTAHYDROFURO[3,4- B]PYRAZINES AS GLP-1 RECEPTOR MODULATORS” (ASTRAZENECA AB, priority 2021, published 2025)

Key:
[1] = biological target: T1, endogenous human glucagon-like peptide 1 receptor (GLP-1R) (Homo sapiens, UniProt P43220); assay: EndoC cAMP Accumulation Assay; format: cell-based; settings: EndoC-βH1 human pancreatic β cell line; HTRF cAMP assay
T1 construct: endogenous human glucagon-like peptide 1 receptor (GLP-1R) in a pancreatic insulinoma cell line; host or cells: EndoC-βH1 human pancreatic β cell line
T1 sequence (P43220 24-463): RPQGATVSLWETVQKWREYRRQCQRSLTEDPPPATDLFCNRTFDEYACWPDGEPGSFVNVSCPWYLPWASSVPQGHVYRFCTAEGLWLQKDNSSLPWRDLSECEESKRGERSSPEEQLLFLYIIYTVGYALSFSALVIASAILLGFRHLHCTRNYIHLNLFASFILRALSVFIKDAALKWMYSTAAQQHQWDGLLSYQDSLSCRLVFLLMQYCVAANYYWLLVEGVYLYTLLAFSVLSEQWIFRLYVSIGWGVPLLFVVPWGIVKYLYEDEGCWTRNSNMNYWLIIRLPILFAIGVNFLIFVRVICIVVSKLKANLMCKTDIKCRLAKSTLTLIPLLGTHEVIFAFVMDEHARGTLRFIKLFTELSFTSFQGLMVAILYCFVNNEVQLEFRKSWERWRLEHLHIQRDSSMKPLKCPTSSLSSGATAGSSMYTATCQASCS
Description: EndoC cAMP Accumulation Assay
A HTRF (Homogeneous Time-Resolved Fluorescence) cAMP assay (cAMP Gs dynamic kit; CisoBio Cat #62AM4PEJ) was used to identify agonists of the endogenous human glucagon-like peptide 1 receptor (GLP-1R) in a pancreatic insulinoma cell line (EndoC-βH1). […] EndoC-βH1 cells have detectable GLP-1R mRNA as detected by qPCR^1. […] The EndoC-βH1 cell line is a valid model of human beta cells and applicable for screenings to identify novel drug target candidates (Mol. Metab., 2018, 8, 144-157). CisBio HTRF cAMP kits are based on a competitive immunoassay using cryptate-labelled anti-cAMP antibody and d2-labeled cAMP. The detection kit is intended for the direct quantitative determination of cAMP. The specific signal (i.e. energy transfer) is inversely proportional to the concentration of cAMP in the standard or sample. Test compounds (10 mM in DMSO) were diluted into assay buffer (HBSS (Sigma #H8264) supplemented with 25 mM HEPES (Gibco #15630, pH 7.4), 0.1% BSA (Sigma #A3059) and 0.5 mM IBMX (Sigma #I7018) included fresh on the day of the assay) into 96 well U-bottom plates (Greiner #650201). Diluted compounds were transferred to ECHO source PP plates (Labcyte #P-05525) and dose response curves were dispensed acoustically using ECHO 550 into black shallow-well u-bottom 384-well HTRF Assay Plates (Corning 4514).
Cryovials of EndoC-H1 (supplied at 1×10e^7 cells/vial) were used directly for screening. The cryovials and were removed from LN2 and thawed rapidly in a 37° C. water bath. The cells were resuspended in assay buffer and centrifuged at 300 g for 5 min. Cells were resuspended in assay buffer at the appropriate concentration, typically at 12e5 cells per mL (3000 cells per well, dependent on cell batch) and 2.5 μL diluted cells were added to all wells of destination plate by Multidrop combi reagent dispenser (Thermofisher). The plates were incubated at room temperature for 30 min. The assay was stopped by adding 2.5 μL anti-cAMP cryptate solution to all wells and 2.5 μL cAMP-d2 solution (both diluted 1:20 in lysis buffer) to columns 1-22 by Combi drop. A volume of 2.5 μL cAMP-d2 solution was added to wells E23 to P24 and 2.5 μL lysis buffer added to wells A23 to D24 by multichannel pipette. The plates were incubated at room temperature for 1 hr and read on an Envision plate reader using excitation wavelength of 320 nm and emission of 590 nm and 660 nm.
Raw data from Envision is converted to % DeltaF according to the manufacturer's instructions. Dose response curves are analysed via 4-Parameter Logistical Analysis and assay plate Z′ values obtained. Samples are graphed as percentage (%) activation plots compared to GIP (1-42, Bachem H-5645) with assay window defined by negative control as basal cell cAMP levels and positive control are defined by maximum GIP (82.5 nM) signal. GLP1 (7-36 amide, Bachem H-6795) dose response curve was included on all plates.

[2] = biological target: T2, human GLP-1R receptor (Homo sapiens, UniProt P43220, L260F); assay: CHOK1 GLP-1R cAMP Assay; format: cell-based; settings: CHO-K1 cell line stably expressing human GLP-1R; HTRF cAMP detection
T2 construct: expressed in transfected cells; host or cells: CHO-K1 (ATCC CCL-61)
T2 sequence (P43220 24-463 L260F): as the sequence (P43220 24-463) above, with L237F counted along it
Experimental: A cell line stably expressing the human GLP-1R receptor (NM_002062.5, including the naturally-occurring variant Leu260Phe) in a CHO-K1 (ATCC® CCL-61™) was used for assay.
GLP-1 Receptor mediated agonist activity was determined in a cell based assay measuring cAMP levels in cells using Homogeneous Time-Resolved Fluorescence (HTRF) cAMP detection kit (CisBio catalog #62AM4PEC, cAMP Gs Dynamic range kit). The cAMP detection method is based on a competitive immunoassay, in which cAMP produced by the cells and cAMP labeled with the dye d2 compete for binding to a Europium-Cryptate-labeled anti-cAMP antibody. The specific HTRF signal is inversely proportional to the concentration of cAMP.
Compounds were added to individual well in 384 well-assay plates (Greiner #784076) using an Echo (LabCyte) dispenser from 10 mM stocks. Varying concentration of compounds were added to wells, and dimethyl sulfoxide was used to normalize each well to a volume of 100 nanoliter. A dose response curve of GLP1(7-36)NH2 (Bachem H-6795) was included in each run. 5 μL of cAMP concentration response standards are applied in specified wells in the assay plates.
Cryo-preserved cells are thawed and resuspended in assay buffer pre-heated to 37° C. (20 mM 2-[4-(2-hydroxyethyl)piperazin-1-yl]ethanesulfonic acid (HEPES) pH 7.4, lx Hank's Balanced Salt Solution (HBSS, Life Technologies #14065) supplemented with 0.1% (w/v) bovine serum albumin (Sigma, A-7030)). Cells were centrifuged at 250*g for 5 min at room temperature, and resuspend in room tempered assay buffer to a final density of 0.16*10^6 cell/mL, to deliver 800 cells/well. 5 μL of assay buffer with 1 mM 3-isobutyl-1-methylxanthin (IBMX; Sigma cat I-7018) was dispensed per well in assay plates using a multidrop combi (Thermo Scientific) subsequently 5 μL of cell suspension was distributed to relevant wells in the assay using a multidrop dispenser. Assay plates were incubated 20 min at room temperature.
Detection reagents, Europium-Cryptate-labeled anti-cAMP antibody and cAMP labeled with the dye d2, are diluted in lysis buffer, provided by the manufacturer. 5 μL of each detection reagent is supplemented to each assay well using a multidrop dispenser. Assay plates are incubated in the dark for at least one hour. The HTRF signal is measured using the HTRF module (excitation: 337 nm, emission A: 665 nm and emission B: 620 nm) in Pherastar FSX (BMG Labtech).
Raw data were converted to pM cAMP using the cAMP standard curve included in each run. Converted data were further analyzed in Genedata Screener (Genedata) and EC50 determinations were made from agonist dose-response curves analyzed with a curve fitting program using a 4-parameter logistic dose response equation (Equation y=A+((B−A)/1+((C/x)^D))) where A is no stimulation, B is full stimulation, C is the EC50 and D is the Hill slope). The percent effect was determined relative to a saturating concentration of a full GLP-1R agonist (GLP1(7-36)NH2 has 100% effect in this assay setup).

| SMILES | EC50 [1] [nM] | EC50 [2] [nM] |
| --- | --- | --- |
| C[C@]1(c2ccc(Cl)cn2)Oc2cccc(N3CCN(Cc4nc5c(F)cc(C(=O)O)cc5n4C[C@@H]4CCO4)[C@H]4COC[C@H]43)c2O1 (single isomer, unassigned) [Example 9c, 2-((4aR*,7aS*)-4-((R*)-2-(5-Chloropyridin-2-yl)-2-methylbenzo[d][1,3]dioxol-4-yl)hexahydrofuro[3,4-b]pyrazin-1(2H)-yl)methyl)-4-fluoro-1-(((S)-oxetan-2-yl)methyl)-1H-benzo[d]imidazole-6-carboxylic acid] | 1100 | 570 |
| C[C@]1(c2ccc(Cl)cn2)Oc2cccc(N3CCN(Cc4nc5ccc(C(=O)O)cc5n4CCn4cccn4)[C@H]4COC[C@H]43)c2O1 (single isomer, unassigned) [Example 10] | 76 | 160 |
| C[C@]1(c2ccc(Cl)cn2)Oc2cccc(N3CCN(Cc4nc5c(F)cc(C(=O)O)cc5n4CCn4cccn4)[C@H]4COC[C@H]43)c2O1 (single isomer, unassigned) [Example 11] | 35 | 96 |
| C[C@]1(c2ccc(Cl)cn2)Oc2cccc(N3CCN(Cc4nc5c(F)cc(C(=O)O)cc5n4C[C@@H]4CCCO4)[C@H]4COC[C@H]43)c2O1 (single isomer, unassigned) [Example 12a, 2-(((4aR*,7aS*)-4-((R*)-2-(5-Chloropyridin-2-yl)-2-methylbenzo[d][1,3]dioxol-4-yl)hexahydrofuro[3,4-b]pyrazin-1(2H)-yl)methyl)-4-fluoro-1-(((S)-tetrahydrofuran-2-yl)methyl)-1H-benzo[d]imidazole-6-carboxylic acid] | 7.6 | 8 |
| C[C@]1(c2ccc(Cl)cn2)Oc2cccc(N3CCN(Cc4nc5c(F)cc(C(=O)O)cc5n4C[C@@H]4CCCO4)[C@H]4COC[C@H]43)c2O1 (single isomer, unassigned) [Example 12b, 2-(((4aR*,7aS*)-4-((R*)-2-(5-Chloropyridin-2-yl)-2-methylbenzo[d][1,3]dioxol-4-yl)hexahydrofuro[3,4-b]pyrazin-1(2H)-yl)methyl)-4-fluoro-1-(((S)-tetrahydrofuran-2-yl)methyl)-1H-benzo[d]imidazole-6-carboxylic acid] | 91 | 61 |

Second part, the compound after the results:

| EC50 [1] [nM] | EC50 [2] [nM] | SMILES |
| --- | --- | --- |
| 13 | 55 | C[C@]1(c2ccc(Cl)cc2F)Oc2cccc(N3CCN(Cc4nc5c(F)cc(C(=O)O)cc5n4Cc4cccnc4)[C@H]4COC[C@H]43)c2O1 (single isomer, unassigned) [Example 13a] |
| 290 | 680 | C[C@]1(c2ccc(Cl)cc2F)Oc2cccc(N3CCN(Cc4nc5c(F)cc(C(=O)O)cc5n4Cc4cccnc4)[C@H]4COC[C@H]43)c2O1 (single isomer, unassigned) [Example 13b] |
| 3.3 | 1.5 | C[C@]1(c2ccc(Cl)cn2)Oc2cccc(N3CCN(Cc4nc5c(Cl)cc(C(=O)O)cc5n4C[C@@H]4CCO4)[C@H]4COC[C@H]43)c2O1 (single isomer, unassigned) [Example 14a, 4-Chloro-2-(((4aR*,7aS*)-4-((R*)-2-(5-chloropyridin-2-yl)-2-methylbenzo[d][1,3]dioxol-4-yl)hexahydrofuro[3,4-b]pyrazin-1(2H)-yl)methyl)-1-(((S)-oxetan-2-yl)methyl)-1H-benzo[d]imidazole-6-carboxylic acid] |
| 600 | 170 | C[C@]1(c2ccc(Cl)cn2)Oc2cccc(N3CCN(Cc4nc5c(Cl)cc(C(=O)O)cc5n4C[C@@H]4CCO4)[C@H]4COC[C@H]43)c2O1 (single isomer, unassigned) [Example 14b, 4-Chloro-2-(((4aR*,7aS*)-4-((R*)-2-(5-chloropyridin-2-yl)-2-methylbenzo[d][1,3]dioxol-4-yl)hexahydrofuro[3,4-b]pyrazin-1(2H)-yl)methyl)-1-(((S)-oxetan-2-yl)methyl)-1H-benzo[d]imidazole-6-carboxylic acid] |
| 230 | 180 | C[C@]1(c2ccc(Cl)cn2)Oc2cccc(N3CCN(Cc4nc5c(Cl)cc(C(=O)O)cc5n4C[C@@H]4CCO4)[C@H]4COC[C@H]43)c2O1 (single isomer, unassigned) [Example 14c, 4-Chloro-2-(((4aR*,7aS*)-4-((R*)-2-(5-chloropyridin-2-yl)-2-methylbenzo[d][1,3]dioxol-4-yl)hexahydrofuro[3,4-b]pyrazin-1(2H)-yl)methyl)-1-(((S)-oxetan-2-yl)methyl)-1H-benzo[d]imidazole-6-carboxylic acid] |
| 480 | 190 | C[C@]1(c2ccc(Cl)cn2)Oc2cccc(N3CCN(Cc4nc5c(Cl)cc(C(=O)O)cc5n4C[C@@H]4CCO4)[C@H]4COC[C@H]43)c2O1 (single isomer, unassigned) [Example 14d, 4-Chloro-2-(((4aR*,7aS*)-4-((R*)-2-(5-chloropyridin-2-yl)-2-methylbenzo[d][1,3]dioxol-4-yl)hexahydrofuro[3,4-b]pyrazin-1(2H)-yl)methyl)-1-(((S)-oxetan-2-yl)methyl)-1H-benzo[d]imidazole-6-carboxylic acid] |
| 120 | 71 | C[C@]1(c2ccc(Cl)cc2F)Oc2cccc(N3CCN(Cc4nc5c(Cl)cc(C(=O)O)cc5n4C[C@@H]4CCO4)[C@H]4COC[C@H]43)c2O1 (single isomer, unassigned) [Example 15b, 4-Chloro-2-(((4aR*,7aS*)-4-((R*)-2-(4-chloro-2-fluorophenyl)-2-methylbenzo[d][1,3]dioxol-4-yl)hexahydrofuro[3,4-b]pyrazin-1(2H)-yl)methyl)-1-(((S)-oxetan-2-yl)methyl)-1H-benzo[d]imidazole-6-carboxylic acid] |
